# Measurements reported in paper PMC7345083, “Vancomycin-Lipopeptide Conjugates with High Antimicrobial Activity on Vancomycin-Resistant Enterococci” (Pharmaceuticals, 2020).
# Tests used:
# [1] = tested on: human blood (red blood cells); settings: cited from earlier work
# Description: In order to investigate the hemolytic behavior, human blood from healthy volunteers was taken and exposed to different concentrations of selected conjugates. As a control, unmodified vancomycin, known to have non-hemolytic properties up to 12 mM [40], was used (Figure 4).
# [2] = tested on: Enterococcus faecium UL602570 (vanA, clinical isolate); format: cell-based; settings: for MIC median / MIC range: UL602570 (vanA, clinical isolate, 18 h)
# Description: (§1) The minimum inhibitory concentration (MIC) was determined by microdilution following the EUCAST and CLSI guidelines via the broth microdilution assay on a 96-well plate. Substances were dissolved in saline solution (0.9%) at a concentration equimolar to 1.28 mg/mL vancomycin. With an increasing hydrophobicity, some substances had to be pre-dissolved in DMSO. The final concentration of DMSO remained below 1.5% and was compared to the DMSO control (no antimicrobial effect was observed up to the highest concentration tested (10%)). All substances were serially diluted on the 96-well plate using Mueller-Hinton-Broth II (cation adjusted). Vancomycin was always used as a control. For bacterial loading, an overnight culture of the referring strain was taken and adjusted to a turbidity corresponding to 10^8 cfu/mL. The bacterial suspension was further diluted to load a bacterial number of 10^6 cfu/mL on the 96-well plate and incubate it for 18 h at 35 ± 1 °C, as described before. MIC was defined as the lowest concentration without visible growth.
# [3] = tested on: E. faecium ATCC 51559 (vanA); format: cell-based, Enterococcus faecium; settings: for MIC median / MIC range: ATCC 51559, 18 h
# Description: as §1
# [4] = tested on: human blood (red blood cells); experiment: Hemolysis (hemoglobin release assay); format: cell-based; settings: concentrations above 100 µM, range applied 1-900 µM, 2 h, 37 °C
# Description: Hemolytic activity was determined by the hemoglobin release assay on a 96-well plate. Fresh venal blood was collected from volunteers in anticoagulant tubes. The blood samples were centrifuged for 3 min at 2500 rpm, and afterwards, the supernatant was discarded and PBS (pH 7.4) was added. The tubes were gently inverted, and the previous step was repeated two times. Substances were serial two-fold diluted in PBS (pH 7.4) on a 96-well V-bottom plate. Triton X-100 (1% in PBS) was used as a positive control (Xpos). […] In total, 50 µL of the purified blood samples was added to all columns. After 2 h incubation at 37 °C, the 96-well plate was centrifuged at 4000 rpm for 2 min. The supernatant was transferred to a new flat-bottom 96-well plate and absorption was measured at 554 nm. The percentage of hemolysis was calculated according to the following equation:% hemolysis = 100 × (Xsample − Xblank)/(Xpos − Xblank).(1)
# [5] = comparison statement of the abstract, no reference given; cited from earlier work
# Text: Multidrug-resistant bacteria represent one of the most important health care problems worldwide. While there are numerous drugs available for standard therapy, there are only a few compounds capable of serving as a last resort for severe infections. Therefore, approaches to control multidrug-resistant bacteria must be implemented. Here, a strategy of reactivating the established glycopeptide antibiotic vancomycin by structural modification with polycationic peptides and subsequent fatty acid conjugation to overcome the resistance of multidrug-resistant bacteria was followed. This study especia ...
# [6] = tested on: E. faecalis ATCC 51299 (vanB); format: cell-based, Enterococcus faecalis; settings: ATCC 51299, 18 h
# Description: as §1
# [7] = tested on: Enterococcus casseliflavus ATCC 700327 (vanC); format: cell-based; settings: ATCC 700327, 18 h
# Description: as §1
structure (smiles),measurement,setting,value
CN[C@H](CC(C)C)C(=O)N[C@H]1C(=O)N[C@@H](CC(N)=O)C(=O)N[C@H]2C(=O)N[C@H]3C(=O)N[C@H](C(=O)N[C@H](C(=O)O)c4cc(O)cc(O)c4-c4cc3ccc4O)[C@H](O)c3ccc(c(Cl)c3)Oc3cc2cc(c3O[C@@H]2O[C@H](CO)[C@@H](O)[C@H](O)[C@H]2O[C@H]2C[C@](C)(N)[C@H](O)[C@H](C)O2)Oc2ccc(cc2Cl)[C@H]1O [vancomycin],non-hemolytic properties up to (concentration),[1],up to 12 mM
same,resistance against vancomycin up to (concentration),"[2]; E. faecium UL602570, vanA clinical isolate",up to 640 mg/L
same,resistant to up to (vancomycin concentration),"[3]; E. faecium ATCC 51559, vanA",up to 1024 mg/L
same,hemolytic effect at higher concentrations,[4],could neither be observed
same,excretion route,[5],rapidly excreted by the kidneys
CCCCCCCCCCCC(=O)N[C@@H](CCCNC(=N)N)C(=O)N[C@@H](CCCNC(=N)N)C(=O)N[C@@H](CCCNC(=N)N)C(=O)N[C@@H](CSC1CC(=O)N(CC2CCC(C(=O)N(C)[C@H](CC(C)C)C(=O)N[C@H]3C(=O)N[C@@H](CC(N)=O)C(=O)N[C@H]4C(=O)N[C@H]5C(=O)N[C@H](C(=O)N[C@H](C(=O)O)c6cc(O)cc(O)c6-c6cc5ccc6O)[C@H](O)c5ccc(c(Cl)c5)Oc5cc4cc(c5O[C@@H]4O[C@H](CO)[C@@H](O)[C@H](O)[C@H]4O[C@H]4C[C@](C)(N)[C@H](O)[C@H](C)O4)Oc4ccc(cc4Cl)[C@H]3O)CC2)C1=O)C(N)=O (stereo partly shown) [VN-R3C-C12],MIC median,[6],4 µg/mL
same,MIC median,[2],2.37 µg/mL
same,MIC range,[2],2.37 to 4.73 µg/mL
same,MIC median,[7],2.5 µg/mL
same,MIC range,[7],1 to 4 µg/mL
same,MIC median,[3],4.72 µg/mL
same,MIC range,[3],4.72 to 9.44 µg/mL
CCCCCCCCCCCC(=O)N[C@@H](CCCNC(=N)N)C(=O)N[C@@H](CCCNC(=N)N)C(=O)N[C@@H](CCCNC(=N)N)C(=O)N[C@@H](CSC1CC(=O)N(CC2CCC(C(=O)NCCNC(=O)[C@H]3NC(=O)[C@H]4NC(=O)[C@H](NC(=O)[C@@H]5NC(=O)[C@H](CC(N)=O)NC(=O)[C@H](NC(=O)[C@@H](CC(C)C)NC)[C@H](O)c6ccc(c(Cl)c6)Oc6cc5cc(c6O[C@@H]5O[C@H](CO)[C@@H](O)[C@H](O)[C@H]5O[C@H]5C[C@](C)(N)[C@H](O)[C@H](C)O5)Oc5ccc(cc5Cl)[C@H]4O)c4ccc(O)c(c4)-c4c(O)cc(O)cc43)CC2)C1=O)C(N)=O (stereo partly shown) [VC-R3C-C12],MIC median,[6],4 µg/mL
same,MIC median,[2],4.84 µg/mL
same,MIC range,[2],2.42 to 4.84 µg/mL
same,MIC median,[7],4 µg/mL
same,MIC range,[7],1 to 4 µg/mL
same,MIC median,[3],4.84 µg/mL
same,MIC range,[3],4.84 to 9.69 µg/mL
